Five molecules from patent US12054510B2, “2′ and/or 5′ amino-acid ester phosphoramidate 3′-deoxy adenosine derivatives as anti-cancer compounds” (Nucana plc, priority 2014, dated 2024) can be followed below.

Series [1] relates to CCRF-CEM. Briefly: CellTiterGlo cell viability assay, initial screening. The series is classed as cell-based. The protocol:
(§1) In vitro viability assays were performed to assess the effects of compounds on cell viability in 7 selected cell lines over 72 hr using the CellTiterGlo (CTG, Promega-G7573) assay. The tests were performed in duplicates with treatment of compounds at 9 points, 3.16 folds titration in 96 well plates over ˜72 hr. The compound starting concentrations were […]. Cell viability assay using CellTiterGlo in 96-well plate were performed. The compound treatment was 72 hrs, under standard growth conditions, and in duplicate. Compounds were dissolved to 40 mM with thawed […]. Compounds were serially diluted at 3.16 fold in thawed DMSO, and warmed to 37° C. before being dissolved in media (2 μl+200 μl). After compounds were dissolved in media (media was also warmed to 37° C.). Media containing compounds were warmed to 37° C. in incubator and then compounds in media were added to cell plates (50 μl+50 μl), in duplicates. The compounds final concentrations were from […] to 19.9 nM. All compound solubilities were checked and recorded again, then the plates were transferred to CO2 tissue culture incubator immediately and incubated for 3 days. DMSO final concentration is 0.5%.
Background: In ATP-based viability assays light output follows the ATP content of the culture.

Series [2] has as its system HL-60. Described as above. The series is classed as cell-based. How it is done:
as §1

Series [3] deals with HepG2. Described as above. The series is classed as cell-based. Conditions: HepG2; 72 hr; Table II. How it is done:
as §1

The subject of series [4] is K562. The description is as above. Conditions: 72 hr, Table II. The series is classed as cell-based. How it is done:
as §1

The subject of series [5] is KG-1. Described as above. The series is classed as cell-based. How it is done:
as §1

Series [6] has as its system MCF-7. Described as above. The series is classed as cell-based. How it is done:
as §1

The subject of series [7] is MOLT-4. The series is described as above. The series is classed as cell-based. The protocol:
as §1

The subject of series [8] is CEM (TdT+ve). Briefly: ATP ViaLight plus cell viability assay. The series is classed as cell-based, Human. To be noted: for (FD) fold difference compared to control: CEM. How it is done: (§2) Certain compounds of the invention were subjected to further studies to test the cytotoxic activity of certain compounds of the invention and also to measure their activity against 4 haematological cancer cell lines • TdT positive CEM (Human ALL) • TdT negative K562 (Human CML) • TdT negative H1-60 (Human ANLL) • RL (CRL-2261) non-HD lymphoma • The concentrations of the active metabolite dATP (Cordycepin triphosphate) in these cell lines was also measured. • The cytotoxic activity and the intracellular 3′-dATP concentrations were also studied in the presence of hENT1, Adenosine Kinase (AK) and Adenosine Deaminase pharmacological inhibitors in CEM and RL cancer cell lines. Said inhibitors that mimic known cancer resistance mechanisms. Methods Cell Culture
(§3) HL-60, K562, CCRF-CEM and RL cell lines were cultured in RPMI-1640 medium (Sigma Aldrich, UK), which were supplemented with 10% Fetal Bovine Serum (FBS) (PAA Laboratories), 1% amphotericin B (5.5 ml) and 1% penicillin/streptomycin (5.5 ml) (PAA Laboratories) and grown in flasks at 37° C. incubator with 5% CO2.
(§4) The amount of ATP was used as a measurement of cell number and cell viability. ATP ViaLight™ plus assay kit (Lonza, USA: Product No. LT07-121) to detect ATP in cells treated in luminescence compatible 96 well plates (initial concentration of cells was 1×10^4 cells/well) with cordycepin and ProTides at concentrations of: 0, 0.1, 0.5, 1, 5 and 10 μM, followed by incubation for 72 hours at 37° C. incubator with 5% CO2. For inhibitor studies, 10 μM of NBTI or 1 μM EHNA or A-134974 was added and left for 5 minutes before adding the drugs (see section 5 for inhibitor details).
(§5) After incubation, 50 μl of cell lysis reagent was added to the 96 well plates to release the intracellular ATP, followed by 100 μl of ATP monitoring reagent (AMR). The luminescent values of each well were determined using FLUOstar OPTIMA microplate reader (BMG Labtech) which convert ATP into light by using luciferase enzyme. Therefore, the amount of luminescence produced was directly proportional to the amount of ATP.
(§6) Cell lines were treated in the same way as described above but before treatment with drugs, a number of inhibitors were added: • 1) Nitrobenzylthioinosine (NBTI) (Sigma-Aldrich, St. Louis, MO, product # N2255) blocks nucleoside transporters • 2) EHNA hydrochloride (Sigma-Aldrich, St. Louis, MO, product # E114) blocks adenosine deaminase • 3) Adenosine kinase inhibitor A-134974 dihydrochloride hydrate (Sigma-Aldrich, St. Louis, MO, product # A2846): blocks adenosine kinase
(§7) The dose-response curves of cytotoxicity of the drugs was determined using non-linear regression analysis of percentage cell viability versus concentration and EC50 values were obtained. The intracellular assay was conducted in five replicates for each condition. Intracellular assay was determined using paired t test (two-tailed) analysis of 3′ ATP/ATP concentration and p-values were obtained. For all the analysis, Prism Software program (GraphPad Software) was used and Microsoft Powerpoint® 2013 was used to plot the results.

For series [9], the system named is HL-60. Briefly: ATP ViaLight plus cell viability assay. Conditions: HL-60. The series is classed as cell-based, Human. The protocol:
as §2, §3, §4, §5, §7

For series [10], the system named is K562. Briefly: ATP ViaLight plus cell viability assay. Conditions: K562. The series is classed as cell-based, Human. How it is done: as §2, §3, §4, §5, §7
Series [11] deals with RL (CRL-2261). Briefly: ATP ViaLight plus cell viability assay. The series is classed as cell-based. How it is done: as §2, §3, §4, §5, §6, §7
The subject of series [12] is BxPC-3. Briefly: Solid tumour and haematological malignancy assay (CellTiterGlo). To be noted: 72 hr. The series is classed as cell-based. How it is done:
(§8) In vitro viability assay were performed to assess the effects of compounds on cell viability in selected cell lines over 72 hr using the CellTiterGlo (CTG, Promega-G7573) assay. The tests were performed in duplicates with treatment of compounds at 9 points, 3.16 folds titration in 96 well plates over ˜72 hr. The compound starting concentrations were 198 mM. Cell viability assay using CellTiterGlo in 96-well plate were performed. Compound treatment 72 hrs, standard growth conditions, duplicates. Compounds were dissolved to 40 mM with thawed […]. Compounds were serially diluted at 3.16 fold in thawed DMSO, and warmed to 37° C. before being dissolved in media (2 μl+200 μl). After compounds were dissolved in media, media containing compounds were warmed to 37° C. in incubator and then compounds in media were added to cell plates (50 μl+50 μl) in duplicates. The compounds' final concentrations were from 198M to 19.9 nM. All compound solubilities were checked and recorded again, then the plates were transferred to CO2 tissue culture incubator immediately and incubated for 3 days. DMSO final concentration is 0.5%.

The subject of series [13] is Jurkat. The series is described as above. The series is classed as cell-based. To be noted: 72 hr. How it is done: as §8
The subject of series [14] is SW620. The description is as above. The series is classed as cell-based. To be noted: SW620; 72 hr. The protocol:
as §8

Series [15] relates to Z138. The series is described as above. The series is classed as cell-based. Conditions: 72 hr. The protocol:
as §8

The subject of series [16] is CCRFCEM. The description is as above. The series is classed as cell-based. To be noted: for Emax: Homo sapiens, CCRF-CEM, 72 h, read-out: MI %. The protocol: as §8, with “The tests were performed in duplicates with treatment of compounds at 9 points, 3.16 folds titration in 96 well plates over ˜72 hr. The compound starting concentrations were 198 mM.” left out, “Compounds were serially diluted at 3.16 fold in thawed DMSO, and warmed to 37° C. before being dissolved in media (2 μl+200 μl).” left out, “The compounds' final concentrations were from 198M to 19.9 nM.” left out

In series [17] the test system is HT29. Described as above. The series is classed as cell-based. The protocol:
as §8, with “The tests were performed in duplicates with treatment of compounds at 9 points, 3.16 folds titration in 96 well plates over ˜72 hr. The compound starting concentrations were 198 mM.” left out, “Compounds were serially diluted at 3.16 fold in thawed DMSO, and warmed to 37° C. before being dissolved in media (2 μl+200 μl).” left out, “The compounds' final concentrations were from 198M to 19.9 nM.” left out

In series [18] the test system is KG-1. Described as above. The series is classed as cell-based. How it is done: as §8, with “The tests were performed in duplicates with treatment of compounds at 9 points, 3.16 folds titration in 96 well plates over ˜72 hr. The compound starting concentrations were 198 mM.” left out, “Compounds were serially diluted at 3.16 fold in thawed DMSO, and warmed to 37° C. before being dissolved in media (2 μl+200 μl).” left out, “The compounds' final concentrations were from 198M to 19.9 nM.” left out

The test system of series [19] is MOLT-4. Described as above. Conditions: Homo sapiens, MOLT-4, 72 h, read-out: MI %. The series is classed as cell-based. How it is done:
as §8

Series [20] relates to NCI-H929. The series is described as above. The series is classed as cell-based. To be noted: Homo sapiens, NCI-H929, 72 h, read-out: MI %. The protocol:
as §8

In series [21] the test system is RL. The description is as above. The series is classed as cell-based. To be noted: Homo sapiens, 72 h, read-out: MI %. The protocol:
as §8

Series [22] relates to MCF7. The description is as above. To be noted: Homo sapiens, MCF7, 72 h, read-out: MI %. The series is classed as cell-based. How it is done: as §8, with “The tests were performed in duplicates with treatment of compounds at 9 points, 3.16 folds titration in 96 well plates over ˜72 hr. The compound starting concentrations were 198 mM.” left out, “Compounds were serially diluted at 3.16 fold in thawed DMSO, and warmed to 37° C. before being dissolved in media (2 μl+200 μl).” left out, “The compounds' final concentrations were from 198M to 19.9 nM.” left out

Consider `CCCCCOC(=O)[C@H](CC(C)C)NP(=O)(OC[C@@H]1C[C@@H](O)[C@H](n2cnc3c(N)ncnc32)O1)Oc1cccc2ccccc12` (mixture of isomers) [D, (2S)-pentyl 2-(((((2S,4R,5R)-5-(6-amino-9H-purin-9-yl)-4-hydroxytetrahydrofuran-2-yl)methoxy)(naphthalen-1-yloxy)phosphoryl)amino)-4-methylpentanoate], for which the “M.I. %: maximum percentage inhibition of cell viability” value (“M.I. %: maximum percentage inhibition” for short) is on record as 100% in series [1] (CCRF-CEM, 72 hr, Table II); 100% in series [2] (HL-60, 72 hr, Table II); 99% in series [3]; 99% in [4]; 100% in series [5] (KG-1, 72 hr, Table II); 100% in series [6] (MCF-7, 72 hr, Table II). Moreover, the “M.I. %: maximum percentage inhibition” value in series [7] (MOLT-4, 72 hr, Table II) amounted to 100%. The “(FD) fold difference compared to Cordycepin = Cordycepin IC50/ProTide IC50” value is on record as 3 in series [8] (CEM (TdT+ve)), 2 in series [9], 3 in series [10] and 5 in [11].

In the case of `Nc1ncnc2c1ncn2[C@@H]1O[C@H](COP(=O)(NCC(=O)OCc2ccccc2)Oc2ccccc2)C[C@H]1O` (stereo partly drawn) [C, Benzyl 2-(((((2S,4R,5R)-5-(6-amino-9H-purin-9-yl)-4-hydroxytetrahydrofuran-2-yl)methoxy)(phenoxy)phosphoryl)amino)acetate], the “M.I. %: maximum percentage inhibition” value was determined as 94% in series [1] (CCRF-CEM, 72 hr, Table II); 82% in [2] (HL-60, 72 hr, Table II); 59% in series [3]; 92% in [4]; 65% in [5] (KG-1, 72 hr, Table II); 87% in series [6] (MCF-7, 72 hr, Table II). Moreover, the “M.I. %: maximum percentage inhibition” value in series [7] (MOLT-4, 72 hr, Table II) worked out at 93%. The MI % in [12] was determined as 99%; in series [13] it was 100%; in series [14], 100%; in [15], 100%; in series [16] (CCRFCEM, 72 hr), 100%; in series [17] (HT29, 72 hr), 99%. In series [18] (KG-1, 72 hr), the MI % worked out at 102%.

Take `CCCCCOC(=O)[C@H](CC(C)C)NP(=O)(OC[C@@H]1C[C@H](O)[C@H](n2cnc3c(N)nc(OC)nc32)O1)Oc1cccc2ccccc12` (stereo partly drawn) [Compound M]: the Emax in [16] was determined as 100%.

Regarding `Nc1ncnc2c1ncn2[C@@H]1O[C@H](CO)C[C@H]1O` [Cordycepin, 3′-deoxyadenosine, reference compound], the “M.I. %: maximum percentage inhibition” value in series [1] (human, 72 h) is reported as 12%; in series [2] (human, 72 h), 88%; in [3], 66%; in series [4], 88%; in [5] (human, 72 h), 78%; in series [6] (human, 72 h), 78%. Besides, the “M.I. %: maximum percentage inhibition” value in series [7] (human, 72 h) came to 52%. Besides, the MI % in series [12] is given as 22%; in series [13] it was 20%. The “(FD) fold difference compared to control” value in series [8] (AK) was 3; in series [8] (EHNA), −16; in series [8] (NBTI), 5; in series [11] (AK), 4; in series [11] (EHNA), 2; in [11] (NBTI), 2.

On to `COc1nc(N)c2ncn([C@@H]3O[C@H](COP(=O)(N[C@@H](C)C(=O)OCc4ccccc4)Oc4cccc5ccccc45)C[C@H]3O)c2n1` (stereo partly drawn) [K, (2S)-benzyl 2-((((2S,4R,5R)-5-(6-amino-2-methoxy-9H-purin-9-yl)-4-hydroxytetrahydrofuran-2-yl)methoxy)(naphthalen-1-yloxy)phosphorylamino)propanoate], for which the Emax in series [19] turned out to be 104%; in series [20], 102%; in series [21], 104%; in series [16], 102%; in [17] (Homo sapiens, HT-29, 72 h, read-out: MI %) it was 98%; in series [18] (Homo sapiens, KG-1, 72 h, read-out: MI %), 99%. Besides, the Emax in series [22] amounted to 99%.
